Data on three compounds can be found in ChEMBL document CHEMBL2074121, “Human dipeptide transporter, hPEPT1, stably transfected into Chinese hamster ovary cells” (Pharm Res, 1996).

The structures appear in SMILES notation. Where a SMILES comes first, the peptide text is derived from it.

For the assay, the target named is T1, Solute carrier family 15 member 1 (Homo sapiens, UniProt P46059).
T1 sequence (P46059 whole entry): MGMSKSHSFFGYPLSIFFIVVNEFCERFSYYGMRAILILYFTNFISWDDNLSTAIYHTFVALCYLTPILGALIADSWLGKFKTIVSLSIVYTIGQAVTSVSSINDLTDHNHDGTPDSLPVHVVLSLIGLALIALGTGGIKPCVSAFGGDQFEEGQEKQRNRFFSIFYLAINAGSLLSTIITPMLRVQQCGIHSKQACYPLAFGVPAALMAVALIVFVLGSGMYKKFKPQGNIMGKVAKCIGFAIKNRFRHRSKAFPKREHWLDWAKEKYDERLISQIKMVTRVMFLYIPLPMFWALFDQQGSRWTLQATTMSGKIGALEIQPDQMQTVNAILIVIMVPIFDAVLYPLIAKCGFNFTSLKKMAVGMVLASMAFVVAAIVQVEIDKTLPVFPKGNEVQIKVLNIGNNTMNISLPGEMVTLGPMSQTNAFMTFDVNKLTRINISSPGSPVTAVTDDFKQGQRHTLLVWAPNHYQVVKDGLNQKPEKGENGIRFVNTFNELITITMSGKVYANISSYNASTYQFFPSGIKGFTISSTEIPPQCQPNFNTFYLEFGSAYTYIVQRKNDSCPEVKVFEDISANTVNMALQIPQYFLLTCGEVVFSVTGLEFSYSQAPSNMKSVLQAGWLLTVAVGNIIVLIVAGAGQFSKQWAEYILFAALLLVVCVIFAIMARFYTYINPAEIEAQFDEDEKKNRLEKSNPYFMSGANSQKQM
The assay can be described thus: TP_TRANSPORTER: inhibition of Gly-Sar uptake (Gly-Sar: 25000 uM) in PEPT1-expressing CHO cells. The assay is classed as functional, cell-based.
Consider `NCC(=O)NCC(=O)NCC(=O)O`, for which 1400 µM corresponded to half-maximal inhibition (IC50).
To `C[C@H](N)C(=O)N[C@@H](C)C(=O)O` (H-Ala-Ala-OH) belongs 63 µM.
To `CC1(C)S[C@@H]2[C@H](NC(=O)[C@H](N)c3ccccc3)C(=O)N2[C@H]1C(=O)O` [AMPICILLIN] belongs 10000 µM.

As usually defined, the IC50 is the concentration that inhibits the measured activity by half. High values mean a need for much substance, low ones inhibition by little substance.
